From the supplement of paper PMC4862054

Experiments:
MDA-MB-468 [1] = details: 72 h
Method in brief: (§1)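 Breast cancer cell lines (20 µl suspension) were seeded into 384-well plates holding compound at 5 concentrations in 10-fold steps over a compound-specific 10,000-fold range, then incubated 72 h. Cell death was read first by CellTox Green fluorescence (485/520 nm), then viability by CellTiter-Glo luminescence after 10 min at room temperature. Each plate was normalised to 0.1 % DMSO and a positive kill control. EC50 was fitted from the dose-response curves and censored at the top concentration.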

HCC1937 = assay: normalised viability (% of control), CellTiter-Blue; higher = more viable cells (about 100 = DMSO control); details: incubation time: 72 h
Method in brief: (§2)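 Vehicle (100) and a positive kill control (0) anchored the normalisation of each plate, and Z'-factor was used for quality control. Breast cancer cell lines in 20 µl suspension were incubated 72 h over compound in 5 µl medium in 384-well plates, followed by CellTiter-Blue at 560/590 nm. The value is normalised viability at a single listed concentration of the series.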

HCC1143 = assay: as above; details: incubation time: 72 h
Method in brief: as §2

HDQ-P1 [2] = assay: as above; details: incubation time: 72 h
Method in brief: as §2

SK-BR-3 = assay: as above; details: incubation time: 72 h
Method in brief: as §2

MDA-MB-468 [3] = assay: as above; details: incubation time: 72 h
Method in brief: as §2

BT-474 [4] = assay: as above; details: incubation time: 72 h
Method in brief: as §2

DU-4475 = assay: as above; details: incubation time: 72 h
Method in brief: as §2

BT-549 = assay: as above; details: incubation time: 72 h
Method in brief: as §2

CAL-51 = assay: as above; details: incubation time: 72 h
Method in brief: as §2

MFM-223 = assay: as above; details: incubation time: 72 h
Method in brief: as §2

Hs578T = assay: as above; details: incubation time: 72 h
Method in brief: as §2

CAL-120 = assay: as above; details: incubation time: 72 h
Method in brief: as §2

MDA-MB-231 = assay: as above; details: incubation time: 72 h
Method in brief: as §2

MDA-MB-453 = assay: as above; details: incubation time: 72 h
Method in brief: as §2

CAL-85-1 = assay: as above; details: incubation time: 72 h
Method in brief: as §2

CAL-148 = assay: as above; details: incubation time: 72 h
Method in brief: as §2

HDQ-P1 [5] = details: 72 h
Method in brief: as §1

BT-474 [6] = details: 72 h
Method in brief: as §1

SMILES: CC1(C)CCC(CN2CCN(c3ccc(C(=O)NS(=O)(=O)c4ccc(NCC5CCOCC5)c([N+](=O)[O-])c4)c(Oc4cnc5[nH]ccc5c4)c3)CC2)=C(c2ccc(Cl)cc2)C1 [ABT-199]
- EC50, CellTiter-Glo (MDA-MB-468 [1]): > 10 µM

SMILES: Cn1cc(C2=Nc3cc(NC(=O)C(N)C4CCCCC4)cc4c3C2=CNNC4=O)cn1 (configuration not stated)
- normalised viability (HCC1937; 10 nM): 98.2%
- normalised viability (HCC1937; 1000 nM): 55.3%
- normalised viability (HCC1937; 10000 nM): 22.7%
- normalised viability (HCC1143; 10 nM): 85.5%
- normalised viability (HCC1143; 1000 nM): 57.2%
- normalised viability (HCC1143; 10000 nM): 25.6%
- normalised viability (HDQ-P1 [2]; 3 nM): 104%
- normalised viability (HDQ-P1 [2]; 30 nM): 102%
- normalised viability (HDQ-P1 [2]; 100 nM): 106%
- normalised viability (SK-BR-3; 10 nM): 81.8%
- normalised viability (SK-BR-3; 1000 nM): 13.8%
- normalised viability (SK-BR-3; 10000 nM): 10.8%
- normalised viability (MDA-MB-468 [3]; 10 nM): 112%
- normalised viability (MDA-MB-468 [3]; 1000 nM): 19.4%
- normalised viability (MDA-MB-468 [3]; 10000 nM): 10.4%
- normalised viability (BT-474 [4]; 10 nM): 103%
- normalised viability (BT-474 [4]; 1000 nM): 104%
- normalised viability (BT-474 [4]; 10000 nM): 98.9%
- normalised viability (DU-4475; 3 nM): 89.6%
- normalised viability (DU-4475; 30 nM): 82.9%
- normalised viability (DU-4475; 100 nM): 86.3%
- normalised viability (BT-549; 10 nM): 80.9%
- normalised viability (BT-549; 1000 nM): 37.4%
- normalised viability (BT-549; 10000 nM): 18.6%
- normalised viability (CAL-51; 3 nM): 104%
- normalised viability (CAL-51; 30 nM): 87.2%
- normalised viability (CAL-51; 100 nM): 93%
- normalised viability (MFM-223; 10 nM): 86.1%
- normalised viability (MFM-223; 1000 nM): 57.3%
- normalised viability (MFM-223; 10000 nM): 62.2%
- normalised viability (Hs578T; 10 nM): 122%
- normalised viability (Hs578T; 1000 nM): 35.1%
- normalised viability (Hs578T; 10000 nM): 29.5%
- normalised viability (CAL-120; 10 nM): 96.5%
- normalised viability (CAL-120; 1000 nM): 57.2%
- normalised viability (CAL-120; 10000 nM): 27%
- normalised viability (MDA-MB-231; 10 nM): 81.7%
- normalised viability (MDA-MB-231; 1000 nM): 85.6%
- normalised viability (MDA-MB-231; 10000 nM): 34.5%
- normalised viability (MDA-MB-453; 3 nM): 96.7%
- normalised viability (MDA-MB-453; 30 nM): 94.9%
- normalised viability (MDA-MB-453; 100 nM): 72.4%
- normalised viability (CAL-85-1; 3 nM): 89%
- normalised viability (CAL-85-1; 30 nM): 78.3%
- normalised viability (CAL-85-1; 100 nM): 90%
- normalised viability (CAL-148; 3 nM): 88.3%
- normalised viability (CAL-148; 30 nM): 93.5%
- normalised viability (CAL-148; 100 nM): 94%
- EC50, CellTiter-Glo (HDQ-P1 [5]): 9.68 µM
- EC50, CellTiter-Glo (MDA-MB-468 [1]): 0.396 µM
- EC50, CellTiter-Glo (BT-474 [6]): 2.29 µM
